ChEMBL document CHEMBL3885881, “DrugMatrix”

Species on record: Rattus norvegicus
Assay: DrugMatrix - Regimen: Daily Repeat
Type: toxicity, organism-based, Sprague-Dawley
Parameters: regimen Daily Repeat, gender Male, age 6-8 weeks
Conditions: in vivo, po, route oral GAVAGE, vehicle 100 % WATER; for ABSOLUTE BASOPHIL / ABSOLUTE EOSINOPHIL / ABSOLUTE LYMPHOCYTE / ABSOLUTE MONOCYTE / ABSOLUTE SEGMENTED NEUTROPHIL / BASOPHIL / EOSINOPHIL / ERYTHROCYTE COUNT / HEMATOCRIT / HEMOGLOBIN / LEUKOCYTE COUNT / LYMPHOCYTE / MEAN CORPUSCULAR HEMOGLOBIN / MEAN CORPUSCULAR HEMOGLOBIN CONCENTRATION / MEAN CORPUSCULAR VOLUME / MONOCYTE / NEUTROPHIL / NUCLEATED RED BLOOD CELLS / PLATELET COUNT: tissue Blood; for ALANINE AMINOTRANSFERASE / ALBUMIN / ALKALINE PHOSPHATASE / ASPARTATE AMINOTRANSFERASE / BLOOD UREA NITROGEN / CARBON DIOXIDE / CHLORIDE / CHOLESTEROL / CREATINE PHOSPHOKINASE / CREATININE / GLUCOSE / LACTATE DEHYDROGENASE / LIPASE / PHOSPHORUS / POTASSIUM / SODIUM / TOTAL BILIRUBIN / TOTAL PROTEIN / URIC ACID: tissue Plasma
[1] = 0 mg/kg, 72 h, dose level Control, time 3 day
[2] = 0 mg/kg, 120 h, dose level Control, time 5 day
[3] = 200 mg/kg, 72 h, dose level Low, time 3 day

## O=C(O)c1cccnc1 [NIACIN]
[1]
  ABSOLUTE BASOPHIL: 0 CELLS/uL
  ABSOLUTE EOSINOPHIL: 0 CELLS/uL
  ABSOLUTE LYMPHOCYTE: 10386.33 CELLS/uL
  ABSOLUTE MONOCYTE: 88.5 CELLS/uL
  ABSOLUTE SEGMENTED NEUTROPHIL: 1008.5 CELLS/uL
  BASOPHIL: 0%
  EOSINOPHIL: 0%
  ERYTHROCYTE COUNT: 5.16 x10E6/uL
  HEMATOCRIT: 32.43%
  HEMOGLOBIN: 12.98 G/DL
  LEUKOCYTE COUNT: 11.48 x10E3/uL
  LYMPHOCYTE: 92.33%
  MEAN CORPUSCULAR HEMOGLOBIN: 25.23 pg
  MEAN CORPUSCULAR HEMOGLOBIN CONCENTRATION: 40.08 G/DL
  MEAN CORPUSCULAR VOLUME: 62.95 fL
  MONOCYTE: 0.67%
  NEUTROPHIL: 7%
  NUCLEATED RED BLOOD CELLS: 0 /100WBC
  PLATELET COUNT: 1016.67 x10E3/uL
  ALANINE AMINOTRANSFERASE: 62.17 u/L
  ALBUMIN: 3.95 G/DL
  ALKALINE PHOSPHATASE: 363.5 u/L
  ASPARTATE AMINOTRANSFERASE: 118 u/L
  BLOOD UREA NITROGEN: 14.5 mg/dL
  CARBON DIOXIDE: 22.83 mmol/L
  CHLORIDE: 100.67 MEQ/L
  CHOLESTEROL: 66 mg/dL
  CREATINE PHOSPHOKINASE: 1308.83 u/L
  CREATININE: 0.22 mg/dL
  GLUCOSE: 187.5 mg/dL
  LACTATE DEHYDROGENASE: 380.17 u/L
  LIPASE: 16.17 u/L
  PHOSPHORUS: 14.27 mg/dL
  POTASSIUM: 6.8 MEQ/L
  SODIUM: 142.53 MEQ/L
  TOTAL BILIRUBIN: 0.2 mg/dL
  TOTAL PROTEIN: 5.68 G/DL
  URIC ACID: 2.87 mg/dL
[2]
  ABSOLUTE BASOPHIL: 0 CELLS/uL
  ABSOLUTE EOSINOPHIL: 80 CELLS/uL
  ABSOLUTE LYMPHOCYTE: 13301.33 CELLS/uL
  ABSOLUTE MONOCYTE: 180.83 CELLS/uL
  ABSOLUTE SEGMENTED NEUTROPHIL: 1187.83 CELLS/uL
  BASOPHIL: 0%
  EOSINOPHIL: 0.5%
  ERYTHROCYTE COUNT: 5.54 x10E6/uL
  HEMATOCRIT: 35.65%
  HEMOGLOBIN: 14.22 G/DL
  LEUKOCYTE COUNT: 14.75 x10E3/uL
  LYMPHOCYTE: 90.67%
  MEAN CORPUSCULAR HEMOGLOBIN: 25.65 pg
  MEAN CORPUSCULAR HEMOGLOBIN CONCENTRATION: 39.88 G/DL
  MEAN CORPUSCULAR VOLUME: 64.35 fL
  MONOCYTE: 1%
  NEUTROPHIL: 7.83%
  NUCLEATED RED BLOOD CELLS: 0.17 /100WBC
  PLATELET COUNT: 1285.33 x10E3/uL
  ALANINE AMINOTRANSFERASE: 51.67 u/L
  ALBUMIN: 4.08 G/DL
  ALKALINE PHOSPHATASE: 391.5 u/L
  ASPARTATE AMINOTRANSFERASE: 99.5 u/L
  BLOOD UREA NITROGEN: 15.5 mg/dL
  CARBON DIOXIDE: 28.33 mmol/L
  CHLORIDE: 101.83 MEQ/L
  CHOLESTEROL: 67.83 mg/dL
  CREATINE PHOSPHOKINASE: 771.33 u/L
  CREATININE: 0.23 mg/dL
  GLUCOSE: 156.5 mg/dL
  LACTATE DEHYDROGENASE: 544.33 u/L
  LIPASE: 10.17 u/L
  PHOSPHORUS: 12.03 mg/dL
  POTASSIUM: 6.81 MEQ/L
  SODIUM: 144.13 MEQ/L
  TOTAL BILIRUBIN: 0.22 mg/dL
  TOTAL PROTEIN: 6 G/DL
  URIC ACID: 2.18 mg/dL
[3]
  ABSOLUTE BASOPHIL: 0 CELLS/uL
  ABSOLUTE EOSINOPHIL: 118.67 CELLS/uL
  ABSOLUTE LYMPHOCYTE: 13131.33 CELLS/uL
  ABSOLUTE MONOCYTE: 410.33 CELLS/uL
  ABSOLUTE SEGMENTED NEUTROPHIL: 1606.33 CELLS/uL
  BASOPHIL: 0%
  EOSINOPHIL: 0.67%
  ERYTHROCYTE COUNT: 5.09 x10E6/uL
  HEMATOCRIT: 32.87%
  HEMOGLOBIN: 13.13 G/DL
  LEUKOCYTE COUNT: 15.27 x10E3/uL
  LYMPHOCYTE: 86%
  MEAN CORPUSCULAR HEMOGLOBIN: 25.8 pg
  MEAN CORPUSCULAR HEMOGLOBIN CONCENTRATION: 39.97 G/DL
  MEAN CORPUSCULAR VOLUME: 64.6 fL
  MONOCYTE: 2.67%
  NEUTROPHIL: 10.67%
  NUCLEATED RED BLOOD CELLS: 0 /100WBC
  PLATELET COUNT: 1167 x10E3/uL
  ALANINE AMINOTRANSFERASE: 51 u/L
  ALBUMIN: 4 G/DL
  ALKALINE PHOSPHATASE: 346.33 u/L
  ASPARTATE AMINOTRANSFERASE: 113.33 u/L
  BLOOD UREA NITROGEN: 12 mg/dL
  CARBON DIOXIDE: 23.33 mmol/L
  CHLORIDE: 103.33 MEQ/L
  CHOLESTEROL: 74.67 mg/dL
  CREATINE PHOSPHOKINASE: 1459.33 u/L
  CREATININE: 0.2 mg/dL
  GLUCOSE: 170 mg/dL
  LACTATE DEHYDROGENASE: 168.33 u/L
  LIPASE: 11 u/L
  PHOSPHORUS: 12.67 mg/dL
  POTASSIUM: 5.75 MEQ/L
  SODIUM: 144.4 MEQ/L
  TOTAL BILIRUBIN: 0.2 mg/dL
  TOTAL PROTEIN: 5.8 G/DL
  URIC ACID: 1.1 mg/dL
